The subject of assay [1] is formalin-induced inflammatory pain. Kind of assay: Formalin-induced spontaneous inflammatory pain (licking/flinching duration). Type of assay: in vivo, mice. Here is the method:
(§1) Animals and pain models. Adult CD1 mice (male, 25-32 g) were used for most experiments. Knockout mice were used lacking TNFR1/II (Tnfrsf1a/1b^−/−) and TRPV1 (Trpv1^−/−) and C57BL/6 wild-type control mice, all from Jackson, for some experiments. All animal procedures performed in this study were approved by the Harvard Medical Area Standing Committee on Animals. 20 μl of diluted formalin (5%), carrageenan (CRG, 1%), or complete Freund's adjuvant (CFA) were injected into the plantar surface of a hindpaw to produce acute, persistent, or chronic inflammatory pain, respectively. Postoperative pain was also produced through hindpaw incision^36 and neuropathic pain by ligation of the spinal nerve^37.
Reagents and administration. RvE1 and RvD1 were suspended in 1% or 10% ethanol as vehicle for investigating acute (<1 h) and persistent (1-6 h) effects of resolvins on inflammatory pain. The reagents (10 μl) were delivered to the cerebral spinal fluid via intrathecal injection made by a spinal cord puncture between the L5 and L6 level with a 30G needle^38.
(§2) Behavioral analysis. Mice were habituated in the testing environment for two days and performed behavioral testing in a blinded manner. Formalin-evoked spontaneous inflammatory pain was assessed by measuring duration (seconds) animals spent on licking/flinching the affected paws every 5 min for 45 min. Capsaicin-induced spontaneous pain was aslo assessed for 10 min. For testing mechanical sensitivity, mice were put in boxes on an elevated metal mesh floor and stimulated hindpaw with a series of von Frey hairs with logarithmically incrementing stiffness (0.02-2.56 grams, Stoelting), presented perpendicular to the plantar surface. It was determined the 50% paw withdrawal threshold using Dixon's up-down method^40. For testing heat sensitivity, mice were placed in plastic boxes and tested heat sensitivity using Hargreaves radiant heat apparatus (IITC Life Science Inc.). The basal paw withdrawal latency was adjusted to 9-12 seconds and set a cut-off of 20 seconds to prevent tissue damage. The percent maximal possible antinociceptive effect (% M.P.E) was calculated using the equation % M.P.E.=[(PL−BL2)/(BL1−BL2)]×100. BL1, baseline latency before inflammation; BL2, baseline latency after inflammation but before drug injection; PL, latency post drug injection.
Intrathecal injection. To avoid systemic effects of drugs and target spinal mechanisms, drugs were delivered into cerebral spinal fluid (CSF) space around lumbosacral spinal cord via intrathecal (i.t.) administration. Spinal cord puncture was made with a 30G needle between the L5 and L6 level to deliver the reagents (10 μl) to the cerebral spinal fluid (Hylden and Wilcox, 1980)^5. […] In addition to spinal cord cells, intrathecal drug administration also affects DRG cells^6,7.
Intrathecal injection: DHA and EPA (Cayman Chemical, 10 μg, prepared in 1% ethanol), COX-2 inhibitor NS-398 (Sigma, 0.1, 1, and 10 μg, prepared in 1% ethanol in FIG. 1a-c or in 10% ethanol in FIG. 2c), morphine (Sigma, 10 to 500 ng, prepared in 1% ethanol in FIG. 1a-c), naloxone (Sigma, 2 μg, prepared in 1% ethanol), pertussis toxin (Tocris Bioscience, 0.2 μg, prepared in saline), chemerin (R & D Systems, 0.45 to 100 ng, prepared in 1% ethanol), TNF-α (R & D Systems, 20 ng, prepared in saline), and capsaicin (Sigma, 0.5 μg in 10 μl, prepared in 1% DMSO) were delivered. To examine whether pretreatment of RvE1 attenuated TNF-α-induced persistent hyperalgesia at 1, 3, and 24 h, RvE1 and TNF-α were mixed and injected at the same time (FIG. 3c). To examine whether pretreatment of RvE1 attenuates capsaicin-induced acute spontaneous pain, RvE1 and capsaicin were mixed and injected at the same time (FIG. 3f).

For assay [2], the system named is carrageenan (CRG)-elicited heat hyperalgesia. Briefly: Carrageenan (CRG)-elicited heat hyperalgesia. The following applies: intraplantar pretreatment, 20 ng, 10 min before carrageenan. It counts as in vivo, mice. The procedure: as §1, §2
Resolvins were also used for intraplantar injection. […]

The subject of assay [3] is SNL-induced neuropathic pain. Briefly: Neuropathic pain model induced by spinal nerve ligation (SNL). It counts as in vivo, mice. The procedure:
as §1, §2

The next assay relates to inflammatory pain. Kind of assay: Inflammatory pain models induced by formalin or CFA (summary statements). Type of assay: in vivo, mouse. The procedure: as §1, §2
Assay [4] has as its system formalin-induced inflammatory pain. Kind of assay: Formalin-induced spontaneous inflammatory pain (licking/flinching duration). Conditions: intraplantar RvE1 20 ng, 10 min before intraplantar formalin. It counts as in vivo, mice.

Turning to `CC[C@@H](O)/C=C/C=C\C[C@@H](O)/C=C/C=C/C=C\[C@@H](O)CCCC(=O)O` [RvE1, 5S,12R,18R-trihydroxyeicosapentaenoic acid], in assay [1] (intrathecal, dose response curve FIG. 1c), the “effective dose range compared with morphine and NS-398, formalin 2nd phase” value is on record as “much lower than that of either morphine or the COX-2 inhibitor NS-398”. For the same compound, the “formalin-induced pain behavior, 1st phase” value in assay [1] (preemptive intrathecal injection, RvE1 0.3 and 1.0 ng) is “not the 1st phase”. Besides, the “formalin-induced pain behavior, 2nd phase” value in assay [1] (preemptive intrathecal injection, RvE1 0.3 and 1.0 ng, morphine 10 to 500 ng, NS-398 0.1, 1, and 10 μg, chemerin 0.45 to 100 ng) was “reduced”. Also, the CRG-evoked heat hyperalgesia result in assay [2] is given as “substantially attenuated”. In addition, in assay [3] (10 ng, i.t., one day after spinal nerve ligation), the SNL-induced heat hyperalgesia result is “reduces SNL-induced heat hyperalgesia”. The nerve injury-induced hyperalgesia entry in assay [3] (neuropathic pain model induced by spinal nerve ligation) was “potently attenuate”. The pain-like behaviors result with inflammatory pain was “potently inhibit”. Further, in assay [4], the formalin-evoked acute pain entry is “rapidly attenuated”.

The values are drawn from patent US20120245229A1, “METHOD FOR TREATING NEUROPATHIC PAIN” (priority 2009, published 2012).
